Measured values published in patent US4464378A, “Method of administering narcotic antagonists and analgesics and novel dosage forms containing same” (University of Kentucky Research Foundation, priority 1981, dated 1984).

What was measured:
in vivo = conditions: rat, plasma, 0.03 mg; for AUC(0-inf): Area under the blood level curve (AUC ^.infin.0); for AUC(0-inf) / concentration at 1 min / concentration at 0.05 h / concentration at 10 min / concentration at 20 min / concentration at 0.5 h / concentration at 0.75 h / concentration at 1 h / concentration at […] / concentration at 2 h / concentration at 3 h / concentration at 5 min: 30 μg/rat; for concentration at 1 min / concentration at 0.05 h / concentration at 10 min / concentration at 20 min / concentration at 0.5 h / concentration at 0.75 h / concentration at 1 h / concentration at […] / concentration at 2 h / concentration at 3 h / concentration at 5 min: Plasma Level; for concentration at 0.05 h: 3 min; for concentration at 0.5 h: 30 min; for concentration at 0.75 h: 45 min; for concentration at 1 h: 60 min; for concentration at […]: 90 min; for concentration at 2 h: 120 min; for concentration at 3 h: 180 min
[1] = 30 μg/rat
[2] = nasal, individual rats I, II, III
[3] = po, Mean, oral (intraduodenal), mean of 3 rats

C=CCN1CC[C@]23c4c5ccc(O)c4O[C@H]2C(=O)CC[C@@]3(O)[C@H]1C5 [naloxone]
Tmax (in vivo): ~5 min
bioavailability (in vivo): 1.5%
half-life (in vivo): 52.1 min
AUC(0-inf) (in vivo; Mean, nasal, mean of 3 rats): 25.3 ng·h/mL
AUC(0-inf) (in vivo; [2]): 31.7 ng·h/mL
concentration at 1 min (in vivo; Mean, nasal, mean of 3 rats): 23.3 ng/mL
concentration at 0.05 h (in vivo; Mean, nasal, mean of 3 rats): 38.3 ng/mL
concentration at 10 min (in vivo; Mean, nasal, mean of 3 rats): 36 ng/mL
concentration at 20 min (in vivo; Mean, nasal, mean of 3 rats): 19.5 ng/mL
concentration at 0.5 h (in vivo; Mean, nasal, mean of 3 rats): 12 ng/mL
concentration at 0.75 h (in vivo; Mean, nasal, mean of 3 rats): 7.96 ng/mL
concentration at 1 h (in vivo; Mean, nasal, mean of 3 rats): 6.41 ng/mL
concentration at […] (in vivo; Mean, nasal, mean of 3 rats): 3.58 ng/mL
concentration at 2 h (in vivo; Mean, nasal, mean of 3 rats): 2.59 ng/mL
concentration at 3 h (in vivo; Mean, nasal, mean of 3 rats): 1.42 ng/mL
concentration at 0.05 h (in vivo; [2]): 41.2 ng/mL
concentration at 5 min (in vivo; [2]): 54.5 ng/mL
concentration at 10 min (in vivo; [2]): 45.3 ng/mL
concentration at 20 min (in vivo; [2]): 22.7 ng/mL
concentration at 0.5 h (in vivo; [2]): 13.5 ng/mL
concentration at 0.75 h (in vivo; [2]): 9.36 ng/mL
concentration at 1 h (in vivo; [2]): 8.26 ng/mL
concentration at […] (in vivo; [2]): 4.79 ng/mL
concentration at 2 h (in vivo; [2]): 3.65 ng/mL
concentration at 3 h (in vivo; [2]): 1.95 ng/mL
half-life (in vivo; iv): 59.2 min
AUC(0-inf) (in vivo; iv, individual rats I, II, III): 21.2 ng·h/mL
AUC(0-inf) (in vivo; iv, Mean, mean of 3 rats): 25 ng·h/mL
concentration at 1 min (in vivo; iv, individual rats I, II, III): 102 ng/mL
concentration at 0.05 h (in vivo; iv, individual rats I, II, III): 52.3 ng/mL
concentration at 5 min (in vivo; iv, individual rats I, II, III): 31.4 ng/mL
concentration at 10 min (in vivo; iv, individual rats I, II, III): 15.6 ng/mL
concentration at 20 min (in vivo; iv, individual rats I, II, III): 10.3 ng/mL
concentration at 0.5 h (in vivo; iv, individual rats I, II, III): 7.28 ng/mL
concentration at 0.75 h (in vivo; iv, individual rats I, II, III): 5.47 ng/mL
concentration at 1 h (in vivo; iv, individual rats I, II, III): 4.87 ng/mL
concentration at […] (in vivo; iv, individual rats I, II, III): 3.01 ng/mL
concentration at 2 h (in vivo; iv, individual rats I, II, III): 2.15 ng/mL
concentration at 3 h (in vivo; iv, individual rats I, II, III): 1.25 ng/mL
concentration at 1 min (in vivo; iv, Mean, mean of 3 rats): 111 ng/mL
concentration at 0.05 h (in vivo; iv, Mean, mean of 3 rats): 58 ng/mL
concentration at 5 min (in vivo; iv, Mean, mean of 3 rats): 37.5 ng/mL
concentration at 10 min (in vivo; iv, Mean, mean of 3 rats): 19.6 ng/mL
concentration at 20 min (in vivo; iv, Mean, mean of 3 rats): 11.6 ng/mL
concentration at 0.5 h (in vivo; iv, Mean, mean of 3 rats): 8.34 ng/mL
concentration at 0.75 h (in vivo; iv, Mean, mean of 3 rats): 6.74 ng/mL
concentration at 1 h (in vivo; iv, Mean, mean of 3 rats): 5.41 ng/mL
concentration at […] (in vivo; iv, Mean, mean of 3 rats): 3.96 ng/mL
concentration at 2 h (in vivo; iv, Mean, mean of 3 rats): 2.86 ng/mL
concentration at 3 h (in vivo; iv, Mean, mean of 3 rats): 1.47 ng/mL
AUC(0-inf) (in vivo; [3]): 0.367 ng·h/mL
concentration at 5 min (in vivo; [3]): 0.37 ng/mL
concentration at 10 min (in vivo; [3]): 0.34 ng/mL
concentration at 0.75 h (in vivo; [3]): 0.11 ng/mL
concentration at 1 h (in vivo; [3]): 0.09 ng/mL
concentration at 2 h (in vivo; [3]): 0.06 ng/mL
absorption via the nasal route compared with the intravenous route ([1]; nasal vs intravenous): as effective as via the intravenous route
areas under the curve following intravenous and nasal administration, compared ([1]; nasal vs intravenous): not significantly different
bioavailability when administered nasally compared with intravenously ([1]; nasal vs intravenous): equivalent to the bioavailability of the drug when administered intravenously
half-life of elimination after nasal administration compared with intravenous ([1]; nasal vs intravenous): comparable to its half-life following intravenous nasal administration
bioavailability when administered nasally compared with the oral route ([1]; nasal vs oral): vastly superior to its bioavailability by the oral route
absorption from the nasal mucosa ([1]; nasal): very rapidly absorbed from the nasal mucosa
absorption from the nasal mucosa into the systemic circulation; intestinal or first pass metabolism ([1]; nasal): rapidly absorbed from the nasal mucosa into the systemic circulation without extensive intestinal or first pass metabolism
